One assay concerns the target T1, Taq DNA polymerase (Thermus aquaticus, UniProt P19821).
T1 construct: purchased Promega Corporation
Description: Primer extension assay with a single nucleotide, TOP primer/BOT template duplexes (FIG. 1). The assay is classed as biochemical. The conditions noted are these: for DNA strand extension and misincorporation on a template with multiple Ts: template BOT-3TC, lanes 10, 11. How it is done: The ability of a commercially available polymerase to incorporate the novel dNTPs synthesized was monitored using primer extension assays.
This first example illustrates the incorporation of ANS-γ-phosphate dATP to produce extended DNA products from primer/template duplexes. The reactions were carried out in extension buffer and the resulting radiolabeled products were size separated on a 20% denaturing polyacrylamide gel. Data were collected using a phosphorimaging system. Referring now FIG. 1, Lane 1 contained 5′ radiolabeled ‘TOP’ probe in extension buffer. Lane 2 contained Taq DNA polymerase, 50 μM dGTP incubated with a DNA duplex (radiolabeled TOP with excess ‘BOT-Sau’). Lane 3 contained Taq DNA polymerase, 50 μM dATP incubated with a DNA duplex (radiolabeled TOP with excess ‘BOT-Sau’). Lane 4 contained Taq DNA polymerase, 50 μM ANS-γ-dATP incubated with a DNA duplex (radiolabeled TOP with excess ‘BOT-Sau’). Lane 5 contained Taq DNA polymerase, 50 μM dGTP incubated with a DNA duplex (radiolabeled TOP with excess ‘BOT-TC’). Lane 6 contained spill-over from lane 5. Lane 7 contained Taq DNA polymerase, 50 μM dATP incubated with a DNA duplex (radiolabeled TOP with excess ‘BOT-TC’). Lane 8 contained Taq DNA polymerase, 50 μM ANS-γ-dATP incubated with a DNA duplex (radiolabeled TOP with excess ‘BOT-TC’). Lane 9 contained Taq DNA polymerase, 50 μM dGTP incubated with a DNA duplex (radiolabeled TOP with excess ‘BOT-3TC’). Lane 10 contained Taq DNA polymerase, 50 μM dATP incubated with a DNA duplex (radiolabeled TOP with excess ‘BOT-3TC’). Lane 11 contained Taq DNA polymerase, ANS-γ-dATP incubated with a DNA duplex (radiolabeled TOP with excess ‘BOT-3TC’). Lane 12 contained 5′ radiolabeled ‘TOP’ probe in extension buffer. Lane 13 contained 5′ radiolabeled ‘TOP’ probe and Taq DNA polymerase in extension buffer.
In these experiments, Taq DNA polymerase (2.5 units/reaction; Promega Corporation) was incubated in polymerase reaction buffer with 10,000 cpm of 5′-^32P end-labeled ‘TOP’ primer, 10 ng of the indicated single-stranded template, and the specified dNTP. The sequences of the oligonucleotides are shown (Table 1). Extension reactions were incubated for 30 minutes, and terminated by the addition of 1 µl of 0.5 M EDTA. The reactions were lyophilized and resuspended in 3.5 µl of sequencing loading buffer. Reaction products were heat denatured, loaded onto a 20% denaturing polyacrylamide gel, size-separated, and quantified using a phosphorimaging system (Fuji Medical Systems, Inc.).

In a further assay the test system is DNA polymerases. Description: Primer extension with several different DNA polymerases, template directing dATP, dATP, dATP, dGTP (FIG. 12). The assay is classed as biochemical. The settings on record: only the indicated nucleotide, 100 μM, 30 minutes. As to the method: Different Polymerases React Differently to the ANS-γ-modified Nucleotides: primer extension reactions were performed to determine the ability of various polymerases to incorporate γ-tagged dNTPs during DNA polymerization. Control reactions contained natural dNTPs to monitor for template-directed nucleotide incorporation as well as for misincorporation as shown in FIG. 12. The reactions were performed in the appropriate buffer and contained the specified polymerase, primer/template duplex (radiolabeled ‘TOP’ primer annealed to ‘BOT-3TC’ template), and only the indicated dNTP. The reactions were carried out at room temperature or at 37° C. for 30 minutes and were stopped by the addition of […]. The volume of the reaction was then reduced to approximately 2-4 μL, loading dye was added and the polymerization products were electrophoresed through a 20% denaturing polyacrylamide gel. Arrows indicate the position of the free labeled ‘TOP’. Asterisks indicate 3-base extension.
Primer extension experiments were performed with several different DNA polymerases to determine whether any of them could incorporate the ANS-γ-phosphate modified nucleotides (FIG. 12). These experiments were performed by incubating the indicated polymerase in appropriate extension buffer, 100 μM ANS-γ-modified dATP, and a 5′-^32P end-labeled primer annealed to a template that directed sequential incorporation of dATP, dATP, dATP dGTP. Positive and negative control reactions containing natural dATP or dGTP, respectively, were run in parallel to monitor template-directed nucleotide incorporation or mis-incorporation. Reactions containing dATP should produce 3-base extension products, whereas those containing dGTP should not produce extended products (due to the absence of dATP). No products longer than 3-bases should result, since no reaction contained more than one nucleotide type. […] Reaction products were heat denatured, loaded onto a 20% denaturing polyacrylamide gel, size-separated (2400 V; 1 hour), and detected via phosphorimaging.

Where [1] appears, read: template BOT-3TC (three A's to be incorporated), lanes 9-11.
[2] abbreviates: template BOT-Sau (first incorporated base should be dGTP), 50 μM nucleotide, lanes 2-4.
Where [3] appears, read: template BOT-TC (single A to be incorporated), 50 μM nucleotide, lanes 5-8.

The text below walks through data of patent publication US9845500B2, “Enzymatic nucleic acid synthesis: compositions and methods for inhibiting pyrophosphorolysis” (LIFE TECHNOLOGIES CORPORATION, priority 2000, dated 2017).

T1 sequence (P19821 whole entry): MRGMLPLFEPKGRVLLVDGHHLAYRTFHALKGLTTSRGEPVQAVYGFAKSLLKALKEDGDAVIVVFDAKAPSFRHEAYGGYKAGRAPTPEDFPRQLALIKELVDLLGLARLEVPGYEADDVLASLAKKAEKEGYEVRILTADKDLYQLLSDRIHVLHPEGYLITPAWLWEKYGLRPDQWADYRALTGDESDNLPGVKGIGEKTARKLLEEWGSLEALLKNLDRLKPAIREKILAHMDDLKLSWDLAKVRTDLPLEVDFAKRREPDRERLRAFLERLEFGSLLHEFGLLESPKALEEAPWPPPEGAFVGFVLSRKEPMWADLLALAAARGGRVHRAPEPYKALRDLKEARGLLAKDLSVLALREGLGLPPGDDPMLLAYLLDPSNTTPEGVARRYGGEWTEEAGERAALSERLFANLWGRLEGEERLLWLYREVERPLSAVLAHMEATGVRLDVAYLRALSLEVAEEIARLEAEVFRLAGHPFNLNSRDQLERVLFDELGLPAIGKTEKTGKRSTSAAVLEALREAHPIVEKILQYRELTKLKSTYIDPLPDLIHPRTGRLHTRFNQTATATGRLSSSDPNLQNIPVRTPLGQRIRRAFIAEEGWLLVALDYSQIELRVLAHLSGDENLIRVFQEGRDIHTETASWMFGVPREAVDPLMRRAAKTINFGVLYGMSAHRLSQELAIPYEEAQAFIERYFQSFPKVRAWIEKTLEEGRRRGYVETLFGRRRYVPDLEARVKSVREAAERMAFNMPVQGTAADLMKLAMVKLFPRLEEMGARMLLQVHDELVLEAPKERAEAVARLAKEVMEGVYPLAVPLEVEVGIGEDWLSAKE

For `Nc1ncnc2c1ncn2[C@H]1C[C@H](O)[C@@H](COP(=O)(O)OP(=O)(O)OP(=O)(O)O)O1` [dATP], the “Percent Correct” value on Taq DNA polymerase (setting [1]) came out at 27.11%; at Taq DNA polymerase (setting [2]) it was 61.99%; on Taq DNA polymerase (setting [3]), 15.24%. Besides, the entries for the “Percent Mis-Extended” value on Taq DNA polymerase (setting [1]), at Taq DNA polymerase (setting [2]) and at Taq DNA polymerase (setting [3]) were 54.92%, 38.01% and 69.01%, respectively. Besides, the entries for the “Total Percent Extended” value at Taq DNA polymerase (setting [1]), on Taq DNA polymerase (setting [2]) and on Taq DNA polymerase (setting [3]) were 82.03%, 38.01% and 84.25%, respectively. Besides, the “DNA strand extension and misincorporation on a template with multiple Ts” value at Taq DNA polymerase was “frequently misincorporated opposite a template C”. Besides, the “percent extension of the TOP primer (template-directed single base)” value at Taq DNA polymerase (template BOT-TC, first incorporated base should be dATP, lanes 7, 8) was 75%. Besides, the “extension products misextended opposite a template C” value on Taq DNA polymerase (template BOT-TC, lane 7, percent of the extension products) was determined as 60%. In addition, the “misextended products further extended by the enzyme's terminal transferase activity” value on Taq DNA polymerase (template BOT-TC, lane 7, percent of the misextended products) was found to be 34%. Further, the extension products formed result in the assay on DNA polymerases is “increased amounts of mis-extended products”.
As to `Nc1nc2c(ncn2[C@H]2C[C@H](O)[C@@H](COP(=O)(O)OP(=O)(O)OP(=O)(O)O)O2)c(=O)[nH]1` [dGTP], the “Percent Correct” value was determined as 32.20% on Taq DNA polymerase (setting [1]), 52.99% at Taq DNA polymerase (setting [2]) and 24.99% on Taq DNA polymerase (setting [3]). Also, the “Percent Mis-Extended” value was 67.80% at Taq DNA polymerase (setting [1]), 19.97% at Taq DNA polymerase (setting [2]) and 75.01% at Taq DNA polymerase (setting [3]). Further, the “Total Percent Extended” value on Taq DNA polymerase (setting [1]) is recorded as 67.80%; at Taq DNA polymerase (setting [2]), 72.97%; on Taq DNA polymerase (setting [3]) it was 75.01%. Moreover, the extension products formed result with DNA polymerases was “increased amounts of mis-extended products”.
As for ANS γ-phosphoamide dATP [ANS-γ-dATP], the “decrease in misextensions, tagged nucleotide versus dATP” value at Taq DNA polymerase (G is to be incorporated, dATP the only nucleotide in the reaction medium) is listed as about 3 fold; at Taq DNA polymerase (a single A is to be incorporated), about 11 fold; at Taq DNA polymerase (three A's are to be incorporated), about 14 fold. Also, the “Percent Correct” value was 73.43% on Taq DNA polymerase (setting [1]), 87.43% on Taq DNA polymerase (setting [2]) and 71.14% at Taq DNA polymerase (setting [3]). Further, the “Percent Mis-Extended” value at Taq DNA polymerase (setting [1]) came out at 3.87%; on Taq DNA polymerase (setting [2]) it was 12.57%; on Taq DNA polymerase (setting [3]), 6.51%. The “Total Percent Extended” value on Taq DNA polymerase (setting [1]) is listed as 77.31%; at Taq DNA polymerase (setting [2]), 12.57%; at Taq DNA polymerase (setting [3]) it was 77.64%. The “DNA strand extension and misincorporation on a template with multiple Ts” value at Taq DNA polymerase is reported as “multiple modified nucleotides are incorporated”. Besides, the “non-specific, single-base extension” value on Taq DNA polymerase (template BOT-Sau, first incorporated base should be dGTP (not added), lane 4 vs lane 1) is on record as “very little non-specific, single-base extension”. Moreover, in the assay with DNA polymerases, the extension products formed result is reported as “expected 3-base extension products accumulate”.
